Assay results taken from patent publication US6911324B2, “Induction of beta cell differentiation in human cells” (The Regents of the University of California, priority 2001, dated 2005).

Tests used:
Format in all cases: cell-based, human
βlox5/PDX-1/MycER cells = assay: PDX-1 cellular localization and p38 activation state
Excerpt: PDX-1 plays a role in the establishment and maintenance of β-cell differentiation. In both the βlox5 and TRM-6 cell lines, it is required for the induction of hormone expression. Therefore, PDX-1 was a good candidate for being a downstream target for c-Myc in the inhibition of hormone expression. Since, in the cell lines that we are studying, PDX-1 is introduced exogenously using a retroviral vector and is transcribed from the retroviral LTR promoter, it was unlikely that c-Myc would be acting at the transcriptional level. Therefore, we investigated PDX-1 cellular localization in βlox5/PDX-1/MycER cells in the presence and absence of 4-OHTM. […] However, many cells exposed to 4-OHTM continued to express PDX-1 in the nucleus and PDX-1 binding to a target DNA sequence could still be detected by EMSA. This could be due to the length of time that the cells were exposed to 4-OHTM or to other pathways such as p38 (RK/SAPK2) that influences PDX-1 localization and function.
Because PDX-1 localization has been reported to be influenced by the p38 pathway, the activation state of p38 was studied using a monoclonal antibody specific for the phosphorylated/active form of the enzyme. In control and 4-OHTM-treated βlox5/PDX-1/MycER cells, active p38 was present in the cytoplasm.

[1] = tested on: βlox5/PDX-1/MycER aggregates; assay: Ki-67 immunostaining for cell proliferation; conditions: 4-OHTM added to aggregates; 16% without 4-OHTM; n=300 cells
Excerpt: PDX-1 and cell-cell contact caused a decrease in cell proliferation in βlox5/PDX-1/MycER cells as shown by immunostaining for the proliferation-associated nuclear antigen Ki-67. In monolayer culture, 77% of βlox5 cells expressed Ki67, while only 16% of the cells in βlox5/PDX-1/MycER aggregates were Ki67 positive (n=300 cells in each case). Addition of 4-OHTM to the aggregates increased the percentage of Ki67 positive cells to 57%. In the absence of 4-OHTM, few cells in the aggregates were positive for Ki-67, while in the presence of 4-OHTM many cells throughout the aggregates were positive.

MycER fusion protein = assay: RT-PCR of c-Myc downstream targets cyclin E and cyclin A after MycER activation; conditions: βlox5/PDX-1/MycER aggregates
Excerpt: To test the hypothesis that decreased c-Myc expression in cell aggregates plays a causal role in promoting differentiation by cell-cell contact, we took advantage of the inducible properties of a fusion protein between an estrogen receptor and c-Myc (Eilers, et al. Nature 340:66-68 (1989)). MycER was expressed in TRM-6 and βlox5 by retroviral infection followed by puromycin selection. Selected βlox5 and TRM-6 cells expressed MycER as shown by western blot analysis. To determine whether the fusion protein was active, the expression of cyclin E and cyclin A was determined since they are known downstream targets of c-Myc.

[2] = tested on: βlox5/PDX-1/MycER aggregates; assay: Transcription factor expression after c-Myc activation (RT-PCR, EMSA, western blot); conditions: c-Myc activation by 4-OHTM
Method: For western blots, whole-cell extracts (10 μg of protein) from monolayer cultures and aggregates of TRM-6 and βlox5 cells as well as whole-cell extracts of the MycER expressing clones were used. Expression of c-Myc and MycER was determined by Western blot analysis with the human c-Myc-specific monoclonal antibody Myc-9E10 (Santa Cruz Biotechnology, Santa Cruz, Calif.) at a dilution of 1:250. The same membrane was re-probed with anti-actin rabbit antibody A2066 (Sigma, Saint Louis, Mo.) in order to verify the protein equivalence when comparing monolayers to aggregates. Western Blot for Phospho-CREB (Ser133) was performed using a polyclonal antibody (PhosphoPlusCREB (Ser133) Antibody Kit, Cell Signaling Technology, Beverly, Mass.) at a dilution of 1:500. Bound antibody was detected with horseradish peroxidase-linked anti-mouse or anti-rabbit Ig (Amersham Pharmacia Biotech, Buckinghamshire, England) and ECL (Amersham Pharmacia Biotech, Buckinghamshire, England).
βlox5 cells express Pax6 and RIPE3b in both the uninduced and induced states. BETA2/NeuroD is present only when the cells are induced. […] As shown by electrophoretic mobility shift assay analysis (EMSA), although not quantitative, we found binding of PDX-1, BETA2/NeuroD1 or RIPE3b to the insulin promoter in the samples from βlox5/PDX-1/MycER aggregates cultured with and without 4-OHTM. […]

TRM-6/PDX-1 cells = assay: Somatostatin expression after c-Myc induction in TRM-6 aggregates; conditions: four days of aggregation, presence of 4-OHTM
Method: (§1) To determine whether the induction of differentiation in the TRM-6 and βlox5 cell lines requires downregulation of c-Myc expression, the effect of inducing c-Myc activity on hormone expression in cells expressing the MycER fusion protein was tested. 4-OHTM or the same amount of ethanol carrier was added to TRM-6/PDX-1 and βlox5/PDX-1 cells at the initiation of the four day period of aggregation required for hormone induction. In addition, 100 nM of the GLP-1 agonist exendin-4 was added to βlox5/PDX-1, as activation of the GLP-1 receptor is necessary for β-cell differentiation in that cell line (Itkin-Ansari, et al., Molec. Endocrinol. 14:814-822(2000)).
(§2) In the absence of 4-OHTM, TRM-6 aggregates expressed high levels of somatostatin after four days of aggregation, while βlox5 aggregates expressed high levels of insulin. […] Insulin protein (273±70.5 pmoles/L) was detected by ELISA in supernatant from βlox5/PDX-1/MycER aggregates in the absence of 4-OHTM but was undetectable in the presence of 4-OHTM. Data were obtained from four independent experiments. To determine whether c-Myc activation produced ablation of hormone expression as opposed to a switch to a different endocrine lineage, the expression of the other major pancreatic hormones, somatostatin, glucagon and pancreatic polypeptide, was measured in 4-OHTM-treated βlox5/PDX-1/MycER cells and found to be absent.

βlox5/PDX-1 cells = assay: Expansion of βlox5/PDX-1 cells under continued administration; conditions: continued administration of 4-OHTM; cells ordinarily almost completely growth arrested
Excerpt: The finding that c-Myc induces the translocation of PDX-1 to the cytoplasm provides important clues to the mechanism by which c-Myc may act on pancreatic endocrine cell proliferation and differentiation. In our system, not only does PDX-1 play a role in inducing hormone expression, but it also produces a marked growth arrest, particularly in the β-cell line βlox5. […] Thus, cell-cell contact and PDX-1 each play dual roles in inhibiting entry into the cell cycle as well as promoting differentiation.

[3] = tested on: βlox5/PDX-1/MycER aggregates; assay: Hormone expression after c-Myc induction in βlox5/PDX-1/MycER aggregates (RT-PCR, insulin ELISA)
Method: as §1, §2

βlox5 cells [4] = assay: RT-PCR analysis of pancreatic hormone gene expression in βlox5 cells
Method: FIG. 2: RT-PCR analysis of pancreatic hormone gene expression in βlox5. The conditions tested were βlox5 cells grown in monolayer culture, βlox5 cells infected with a retroviral vector expressing PDX-1, βlox5 cells grown as three-dimensional aggregates, and βlox5 cells treated with exendin-4. FIG. 2(A) insulin; FIG. 2(B) quantitative RT-PCR analysis of insulin gene expression; FIG. 2(C) other pancreatic hormones. Exendin-4 (Sigma) was used at a concentration of 10 nM. RT-PCR for insulin, somatostatin, glucagon, and IAPP have been described previously (Itkin-Ansari et al., submitted). Quantitative RT-PCR was done by interpolation from a standard curve constructed using a plasmid containing the human insulin cDNA.
PDX-1 also acted synergistically with cell-cell contact to further increase the level of somatostatin expression about 1,000-fold above the cells not expressing PDX-1, to a level similar to that found in normal human islets. To determine whether βlox5 could be induced to express pancreatic hormones, recombinant PDX-1 was expressed in βlox5 using a retroviral vector. […] Therefore, other factors were examined for their ability to induce hormone expression in βlox5 cells expressing PDX-1. Activin and betacellulin have been reported to be able to induce endocrine differentiation in cell lines and primary cells (Mashima et al., Diabetes 48:304-9 (1999), Huotari et al., Endocrinology 139, 1494-9 (1998), Mashima et al., J Clin Invest 97:1647-54 (1996), Yamaoka et al., J Clin Invest 102:294-301 (1998)). However, they had no effect on hormone expression in βlox5 cells (data not shown).
GLP-1, a small peptide cleaved from the proglucagon molecule, is an insulin secretogogue Drucker et al., Diabetes 47:159-69 (1998)).

[5] = tested on: βlox5 cells expressing both NeuroD/BETA2 and PDX-1; assay: Insulin production (RT-PCR) in βlox5 cells expressing both NeuroD/BETA2 and PDX-1
Method: Cells were cultured in DMEM with 5.5 mM glucose and 10% FBS. Selection of clones was conducted in the same medium containing 300 ug/ml Hygromycin B. Qualitative RT-PCR was performed according to Itkin-Ansari et al., Mol. Endocrinol. 14:814-822 (2000).
In light of the previous finding that activation of GLP-1 receptor is one of the necessary inducing factors for β-cell differentiation, βlox5 cells expressing both NeuroD/BETA2 and PDX-1 were also tested for insulin production, before and after stimulation by exendin-4. The cells were treated with 10 nM exendin-4 in the culture medium for four days before the assay.
Cell aggregation was induced as described by Itkin-Ansari et al., supra, 2000. Quantitative insulin RT-PCR was performed by interpolation from a standard curve constructed using a plasmid containing the human insulin cDNA, as described by Beattie et al., Diabetes, 48:1013-1019, 1999.

βlox5 cells [6] = assay: Analysis of transcription factors (BETA2 RT-PCR, CREB western blot) in βlox5 cells
Method: FIG. 3: Analysis of transcription factors expressed in βlox5 cells. FIG. 3(A) electrophoretic mobility shift assay (EMSA) of PDX-1. EMSA for PDX-1 was performed using a probe derived from the human insulin promoter A5 element. FIGS. 3(B&C) RT-PCR analysis of BETA2 and Pax6. FIG. 3(D) Western blot analysis of CREB. FIG. 3(E) EMSA of RIPE3b.
The expression of transcription factors important in β-cell development was examined to determine whether they had been induced by PDX-1, cell-cell contact, and exendin-4. […] GLP-1 has been reported to increase cAMP levels and this has been thought to be a major mechanism by which GLP-1 acts as an insulin secretogogue (Serre et al., Endocrinology 139:4448-54 (1998)). […] RIPE3b, a factor that plays a critical role in insulin gene expression but that has not yet been cloned, is expressed in βlox5 irrespective of PDX-1, cell-cell contact, or exendin-4 (FIG. 3E).

[7] = induced βlox5 cells (PDX-1, cell-cell contact, exendin-4)

`CC/C(=C(\c1ccc(O)cc1)c1ccc(OCCN(C)C)cc1)c1ccccc1` [4-OHTM] was tested, and the PDX-1 cellular localization (βlox5/PDX-1/MycER cells; 4-OHTM-induced activation of c-Myc) was “translocation of PDX-1 from the nucleus to the cytoplasm”, the “p38 expression or activation” value (βlox5/PDX-1/MycER cells; 4-OHTM-treated cells, antibody to phosphorylated/active p38) was “did not result in any changes” and the “percentage of Ki67 positive cells” value [1] was 57%. The “cyclin A expression” value (MycER fusion protein) was “did not affect”, the “cyclin E mRNA expression” value (MycER fusion protein) was “increase” and the “level of mRNA for Pax6 and induction of BETA2/NeuroD1 gene expression” value ([2]; RT-PCR) was “did not result in a change”. The CREB expression ([2]; western blot) was “not affected”, the “somatostatin mRNA” value (TRM-6/PDX-1 cells) was “neither somatostatin nor insulin mRNA was present” and the cell growth (βlox5/PDX-1 cells) was “rapid expansion”. The “expression of somatostatin, glucagon and pancreatic polypeptide” value ([3]; 4-OHTM-treated βlox5/PDX-1/MycER cells) was “absent”, the “insulin mRNA” value ([3]; four days of aggregation, 100 nM exendin-4, presence of 4-OHTM) was “neither somatostatin nor insulin mRNA was present” and the “insulin protein in supernatant by ELISA” value ([3]; presence of 4-OHTM, 273±70.5 pmoles/L in its absence, four independent experiments) was “undetectable”.
Activin was tested, and the “effect on hormone expression in βlox5 cells” value (βlox5 cells [4]; βlox5 cells expressing PDX-1, data not shown) was “no effect”.
With exendin-4 the insulin production ([5]; 10 nM exendin-4, suspension culture, three-dimensional aggregates) was “clearly detectable”, the insulin production ([5]; exendin-4 treatment alone, 10 nM, four days) was “incapable of inducing insulin production” and the BETA2 expression (βlox5 cells [6]; PDX-1, cell-cell contact and exendin-4) was “induced only by the combination of all three inducing factors”. The CREB expression (βlox5 cells [6]; exendin-4 alone, independently of cell-cell contact and PDX-1) was “induced”, the “effect on hormone expression in βlox5” value (βlox5 cells [4]; exendin-4 by itself, 10 nM, four days) was “no effect” and the “Islet amyloid polypeptide (IAPP) mRNA” value (βlox5 cells [4]; [7]) was “expressed”. The “glucagon, somatostatin and pancreatic polypeptide (PP) expression” value (βlox5 cells [4]; [7]) was “not induced” and the “insulin mRNA” value (βlox5 cells [4]; βlox5 cells expressing PDX-1, suspension culture as three-dimensional aggregates, 10 nM exendin-4) was “a substantial amount of insulin mRNA was detectable”.
